Values joined by “and” are separate entries in the source; they are usually repeats but may differ in a detail not shown here. Equal entries are not always repeated.
Legend:
β-Adrenergic Receptors = assay type: binding, rat
calf caudate [1] = target: T1, calf caudate (Bos taurus, UniProt P20288); experiment: Recovery of haloperidol added to drug-free serum, measured by the 3H-spiperone/calf caudate radioreceptor assay; assay type: binding; conditions: in the presence of TBEP
T1 construct: homogenised calf caudate (8 mg/ml); from tissue; host or cells: calf caudate, homogenised

calf caudate [2] = target: T1, calf caudate; assay type: binding
[3] = Radioreceptor assay for tricyclic antidepressant drugs: binding of 3H-desipramine to talc in the presence of serum or buffer, with blocking agent

T1 sequence (P20288 whole entry): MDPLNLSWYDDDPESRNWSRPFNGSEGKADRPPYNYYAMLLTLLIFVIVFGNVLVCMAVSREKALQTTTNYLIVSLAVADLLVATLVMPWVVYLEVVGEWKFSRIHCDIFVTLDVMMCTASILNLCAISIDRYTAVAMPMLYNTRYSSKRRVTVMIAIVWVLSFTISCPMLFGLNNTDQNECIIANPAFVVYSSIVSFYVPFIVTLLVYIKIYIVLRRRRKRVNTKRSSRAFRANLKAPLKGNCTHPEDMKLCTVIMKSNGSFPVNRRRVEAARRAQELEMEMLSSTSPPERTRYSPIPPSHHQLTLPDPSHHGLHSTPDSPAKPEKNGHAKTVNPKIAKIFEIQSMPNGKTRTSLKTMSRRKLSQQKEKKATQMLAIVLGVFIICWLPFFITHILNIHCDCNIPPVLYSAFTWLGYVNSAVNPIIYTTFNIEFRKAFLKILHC

CCCCOCCOP(=O)(OCCOCCCC)OCCOCCCC [TBEP, tris(butoxyethyl) phosphate]
125I-HYP Bound (CPM) in Buffer (β-Adrenergic Receptors): 8513 CPM and 8226 CPM and 8729 CPM and 8510 CPM and 8630 CPM and 8412 CPM
variability (CV) in the recovery of added haloperidol (calf caudate [1]): reduced
% 3H-Spiperone Bound in Buffer (calf caudate [2]): 35.0% and 35.3% and 35.6% and 32.5% and 32.4% and 31.6% and 27.7%
% 3H-Spiperone Bound in Serum (calf caudate [2]): 23.0% and 26.2% and 27.8% and 29.1% and 27.2% and 26.1% and 24.3%
% of 3H-Spiperone Bound, TBEP present (calf caudate [2]): 31.9% and 32.2% and 31.5% and 33.8% and 33.5% and 32.8% and 31.8%
% of 3H-Spiperone Bound, TBEP present, mean (X) (calf caudate [2]): 32.4%
between sample variability (CV) in 3H-spiperone binding (calf caudate [2]): reduced

CCOP(=O)(OCC)OCC [TEP, triethyl phosphate]
3H-Desipramine Bound (CPM) in Buffer ([3]; 50 μg/ml TEP): 12093 CPM
3H-Desipramine Bound (CPM) in Serum ([3]; 50 μg/ml TEP): 7740 CPM
% Change in Buffer ([3]; 50 μg/ml TEP): -2%
% Change in Serum ([3]; 50 μg/ml TEP): +10%
3H-Desipramine Bound (CPM) in Buffer ([3]; 100 μg/ml TEP): 11748 CPM
3H-Desipramine Bound (CPM) in Serum ([3]; 100 μg/ml TEP): 8276 CPM
% Change in Buffer ([3]; 100 μg/ml TEP): -5%
% Change in Serum ([3]; 100 μg/ml TEP): +18%
3H-Desipramine Bound (CPM) in Buffer ([3]; 500 μg/ml TEP): 13024 CPM
3H-Desipramine Bound (CPM) in Serum ([3]; 500 μg/ml TEP): 9204 CPM
% Change in Buffer ([3]; 500 μg/ml TEP): +6%
% Change in Serum ([3]; 500 μg/ml TEP): +31%
3H-Desipramine Bound (CPM) in Buffer ([3]; 750 μg/ml TEP): 11507 CPM
3H-Desipramine Bound (CPM) in Serum ([3]; 750 μg/ml TEP): 9198 CPM
% Change in Buffer ([3]; 750 μg/ml TEP): -6%
% Change in Serum ([3]; 750 μg/ml TEP): +30%
3H-Desipramine Bound (CPM) in Buffer ([3]; 1000 μg/ml TEP): 11925 CPM
3H-Desipramine Bound (CPM) in Serum ([3]; 1000 μg/ml TEP): 9745 CPM
% Change in Buffer ([3]; 1000 μg/ml TEP): -3%
% Change in Serum ([3]; 1000 μg/ml TEP): +39%
3H-Desipramine Bound (CPM) in Buffer ([3]; 1250 μg/ml TEP): 12362 CPM
3H-Desipramine Bound (CPM) in Serum ([3]; 1250 μg/ml TEP): 10016 CPM
% Change in Buffer ([3]; 1250 μg/ml TEP): 0%
% Change in Serum ([3]; 1250 μg/ml TEP): +43%
125I-HYP Bound (CPM) in Buffer (β-Adrenergic Receptors): 8367 CPM and 7988 CPM and 7972 CPM and 7931 CPM and 7613 CPM
125I-HYP Bound (CPM) in Serum (β-Adrenergic Receptors): 3812 CPM and 4131 CPM and 6011 CPM and 5903 CPM and 5881 CPM
% Change in Buffer (β-Adrenergic Receptors): -1% and -5% and -6% and -10%
% 3H-Spiperone Bound in Buffer (calf caudate [2]): 37.9% and 37.5% and 37.1% and 36.6% and 36.8% and 35.0%
% 3H-Spiperone Bound in Serum (calf caudate [2]): 27.8% and 28.6% and 29.1% and 30.1% and 30.6% and 29.8%
% Change in Buffer (calf caudate [2]): 0% and -1% and -2% and -3% and -7%
